What was measured:
[1] = test system: Plasmodium berghei, GFP ANKA strain; assay: In vivo assay, P. berghei mouse model; settings: read-out: ED50 in P. berghei mouse model
Procedure: The Plasmodium berghei, GFP ANKA strain described in B. Franke-Fayard et al., Mol. Biochem. Parasitol., 137(1), 23-33, 2004 is used. This strain is maintained in female NMRI mice (20-22 g). The mice are kept in Standard Macrolon cages type II under standard conditions at 22° C. and 60-70% relative humidity, on a diet of pellets (PAB45—NAFAG 9009, Provimi Kliba AG, CH-4303 Kaiseraugst, Switzerland) and water ad libitu. Chloroquine (Sigma C6628) and artemisinin (Sigma 36, 159-3) are used as the standard drugs.
Stock compound solutions are prepared in 100% DMSO (suspended) or a solution consisting of 70% Tween-80 (d=1.08 g/mL) and 30% ethanol (d=0.81 g/mL), followed by a 10-fold dilution in H2O. […]
On days 1, 2 and 3 (24, 48 and 72 hours post-infection), the experimental groups are treated with a single daily dose per oral dosing (p.o). […] The dosage is determined by a preliminary toxicity test. […]
On day 4, 24 hours after the last drug treatment, 1 μL tail blood is taken and dissolved in 1 mL PBS buffer. Parasitaemia is determined with a FACScan (Becton Dickinson) by counting 100,000 red blood cells. The difference between the mean value of the control group and those of the experimental groups is calculated and expressed as a percentage relative to the control group (=activity). […] The survival of the animals is monitored for up to 30 days. […]

[2] = test system: Plasmodium falciparum, NF54 (sensitive to all known drugs); assay: In vitro assay, 3H-hypoxanthine incorporation, Plasmodium falciparum NF54; type: cell-based; settings: NF54 (CQ sensitive P. falciparum strain)
Procedure: The compounds of the invention and standard compounds are tested in vitro against two standard parasite strains: Plasmodium falciparum, NF54 (sensitive to all known drugs) and Plasmodium falciparum, K1 (chloroquine and pyrimethamine resistant). Chloroquine diphosphate (Sigma C6628), artemisinin (Sigma 36159-3), artesunate (Mepha), atovaquone (GSK) and proguanil (Roche) are used as the standard drugs. The testing is carried out in 96-well plates (Costar™ 96-well microtiter plates).
Smears of the stock cultures of the two strains are prepared and the parasitemia for each culture is determined. Cultures with parasitemia lower than 2% are not used.
Stock compound solutions are prepared in DMSO at 10 mg/mL. If insoluble in DMSO, other solvents may be used according to the recommendations of the supplier. […]
The plates are harvested with a Betaplate™ cell harvester (Wallac, Zurich, Switzerland), which transfers the red blood cells onto a glass fiber filter and washes the filters with distilled water. The dried filters are inserted into a plastic foil with 10 mL of scintillation fluid and counted in a Betaplate™ liquid scintillation counter (Wallac, Zurich, Switzerland). The results are recorded as counts per minute (cpm) per well at each drug concentration.
Data is transferred into a graphic programme (e.g. EXCEL) and expressed as percentage of the untreated controls. […]

C[C@@H]1Cc2c([nH]c3cc(Cl)c(F)cc23)[C@]2(N1)C(=O)Nc1ccc(Cl)cc12 [Example 50, (1S,3R)-5′,7-Dichloro-6-fluoro-3-methyl-2,3,4,9-tetrahydrospiro[β-carboline-1,3′-indol]-2′(1′H)-one]
ED50 [1]: 1.2 mg/kg | IC50 [2]: 0.9 nM

C[C@H]1Cc2c([nH]c3ccc(Cl)cc23)[C@@]2(N1)C(=O)Nc1ccc(Cl)cc12 [Example 62, (1R,3S)-5′,6-Dichloro-3-methyl-2,3,4,9-tetrahydrospiro[β-carboline-1,3′-indol]-2′(1′H)-one]
ED50 [1]: 1.5 mg/kg | IC50 [2]: 3.4 nM

Source: patent publication US8053442B2, “Organic compounds” (Novartis AG, priority 2008, dated 2011)
